The results in this text go back to EP4653448A1, “COMPOUND FOR RNA CAPPING AND USE THEREOF” (Guangzhou Henovcom Bioscience Co. Ltd., priority 2023, dated 2024).

One test addresses T7 RNA Polymerase (Escherichia phage T7, UniProt P00573). Put plainly: Detection of the efficiency of mRNA capping synthesis (in vitro transcription, product yield). To be noted: 20 µL mRNA synthesis reaction system. In kind it is biochemical. The method, then:
• 1) The plasmids were linearized and the DNA templates were purified. • 2) The mRNA was synthesized by in vitro transcription, using the capping structure prepared in the present disclosure, positive control CleanCap®AG (3'OMe) (Trilink, N-7413), negative control (uncapped mRNA) and blank control (DNase/RNase-Free water), respectively. Reaction system
The reaction was carried out at 37°C for 2 to 3 h. TURBO DNase digestion was carried out for 15 min. The mRNA was precipitated by LiCl for 30 min or more or overnight, and the mRNA precipitate was washed with 75% ethanol, dried briefly to evaporate the ethanol, and the mRNA was redissolved with RNase-Free water.
In the reaction system listed in Table 1, since the solubility of different test compounds varies in different solutions, adjustments can be made as needed. For ease of operation, the commonly used concentrations are 10 mM and 100 mM. […] If the initial concentration of the test compound is 10 mM, the dosage is 8 µL. Regardless of the initial concentration, the dosages of different test compounds were the same, and the final concentrations were also the same.
For example, when testing compounds S17 and S19, their initial concentration was 10 mM, and the addition volume was 8 µL. When testing compounds 5 and 6, their initial concentration was 100 mM, and the addition volume was 0.8 µL.
The assay was performed according to the method described in Example 20.

For test [1], the target named is streptavidin-coated magnetic beads (Streptomyces avidinii, UniProt P22629). The test can be described thus: Biotin affinity assay (capture of capped mRNA on streptavidin beads and elution). In kind it is binding. To be noted: capped mRNA bound to streptavidin beads, eluted at 80°C. The method, then: • 1) S1-30nt-mRNA (mRNA capped with compound S1, with a length of 30 nt) was prepared and purified by LiCl; • 2) 500 µL of streptavidin-coated magnetic beads (2 mg) were taken, and the test tube was placed on a magnetic stand to collect the magnetic beads. The supernatant was removed and discarded, and the magnetic beads were washed; • 3) The magnetic beads were resuspended in 600 µL of TES buffer, and 5.5 µg of S1-30nt-mRNA from 1) was added to the magnetic bead resuspension and mixed well; the mixture was incubated at room temperature for one hour on a shaker or vortex mixer; • 4) The sample was placed on the magnetic stand for 5 min, and after the solution became clear, the supernatant was removed; • 5) While keeping the sample on the magnetic stand, the magnetic beads were rinsed three times with TES buffer; • 6) While keeping the sample on the magnetic stand, the magnetic beads were rinsed three times with distilled water; • 7) The deionized water was removed from the beads, and 60 µL of elution buffer heated to 80°C was added and mixed well. The mixture was heated to 80°C for 3 min in a constant-temperature metal bath, then placed on the magnetic stand for 3 min. The supernatant was aspirated as the elution product. • 8) Experimental results
Sequence of streptavidin-coated magnetic beads (P22629 25-183): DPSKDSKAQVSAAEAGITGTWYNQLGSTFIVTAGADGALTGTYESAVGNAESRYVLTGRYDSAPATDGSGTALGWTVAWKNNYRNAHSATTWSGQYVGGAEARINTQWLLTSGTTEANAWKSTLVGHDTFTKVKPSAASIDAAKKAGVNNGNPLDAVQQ

The subject of the next test is HEK293T cells. Put plainly: Expression efficiency of capped luciferase mRNAs in HEK293T cells. The following applies: 6 h after transfection of capped luciferase mRNA. In kind it is cell-based. The method, then:
• 1) HNE293T cells were cultured in DMEM medium containing 10% FBS and penicillin/streptomycin at 37°C and 5% CO2. • 2) The cultured HEK293T cells were spread in a 96-well plate with 1.25 × 10^4 cells per well. • 3) After the cells completely adhered to the wall, 0.5 µg of a mixture of mRNA sample and Polyplus jet[…] was added to each well of cells, and cultured at 37°C and 5% CO2 for 6 h. • 4) The growth medium was removed from the cells to be tested and the cells were rinsed with PBS. After centrifugation to remove PBS, 50 µL of 1x lysis buffer was added thereto, and cells and all liquid were transferred to a microcentrifuge tube, and then centrifuged at 12000 x g at 4°C for 2 min. • 5) The supernatant was transferred to a new tube. Fluorescence readings were detected using the ONE-Glo Luciferase Assay System Kit.
All test compounds, N-7413, negative control and blank control were tested under the same conditions, and some experimental results in the test results are shown in Table 3. Table 3. Relative fluorescence readings for capped mRNAs
The assay was performed according to the method described in Example 21. All test compounds, N-7413, negative control and blank control were tested under the same conditions, and some experimental results in the test results are shown in Table 5. Table 5 Relative fluorescence readings for capped mRNAs

[2] abbreviates: test compound 4 mM, 37°C 2 to 3 h (Table 2).
The mark [3] stands for this setting: 0.5 µg per well, reading of N-7413 = 1 (Table 3).
Setting [4] is: reading of N-7413 = 1 (Table 5).

Sequence of T7 RNA Polymerase (P00573 whole entry): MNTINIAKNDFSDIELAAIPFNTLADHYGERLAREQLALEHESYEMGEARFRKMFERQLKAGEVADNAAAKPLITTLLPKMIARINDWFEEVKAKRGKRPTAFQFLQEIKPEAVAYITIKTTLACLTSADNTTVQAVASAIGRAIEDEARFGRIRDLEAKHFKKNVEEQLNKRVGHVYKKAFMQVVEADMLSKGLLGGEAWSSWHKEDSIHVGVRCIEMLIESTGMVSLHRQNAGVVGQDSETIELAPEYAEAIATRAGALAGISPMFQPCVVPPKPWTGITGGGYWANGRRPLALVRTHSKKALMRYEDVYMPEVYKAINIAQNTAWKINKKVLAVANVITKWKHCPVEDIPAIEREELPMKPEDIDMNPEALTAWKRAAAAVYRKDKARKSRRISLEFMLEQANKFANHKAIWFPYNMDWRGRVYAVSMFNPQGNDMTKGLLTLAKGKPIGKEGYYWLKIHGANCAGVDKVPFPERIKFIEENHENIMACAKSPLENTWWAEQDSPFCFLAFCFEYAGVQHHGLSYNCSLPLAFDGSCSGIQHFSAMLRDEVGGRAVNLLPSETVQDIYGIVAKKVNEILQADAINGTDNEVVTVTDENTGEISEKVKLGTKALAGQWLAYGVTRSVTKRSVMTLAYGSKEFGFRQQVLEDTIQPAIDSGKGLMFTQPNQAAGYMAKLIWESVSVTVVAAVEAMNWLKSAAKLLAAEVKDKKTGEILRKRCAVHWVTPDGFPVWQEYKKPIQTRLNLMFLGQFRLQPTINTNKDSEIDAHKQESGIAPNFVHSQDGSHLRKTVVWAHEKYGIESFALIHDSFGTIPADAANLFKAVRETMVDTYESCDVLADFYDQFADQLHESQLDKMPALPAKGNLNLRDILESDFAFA

`CO[C@@H]1[C@H](OP(=O)([O-])OC[C@H]2O[C@@H](n3cnc4c(=O)[nH]c(N)nc43)[C@H](O)[C@@H]2O)[C@@H](COP(=O)(O)OP(=O)(O)OP(=O)(O)OC[C@H]2O[C@@H](n3c[n+](C)c4c(=O)[nH]c(N)nc43)[C@H](O)[C@@H]2NC(=O)CCCC[C@@H]2SC[C@@H]3NC(=O)N[C@@H]32)O[C@H]1n1cnc2c(N)ncnc21` [Compound S169] displayed a Final product mass on T7 RNA Polymerase (setting [2]) of 131 µg. Further, the recovery rate result in test [1] was “above 95%”. The Relative fluorescence reading with HEK293T cells (setting [3]) was 1.35.
On the same counts, the results for `CO[C@@H]1[C@H](OP(=O)([O-])OC[C@H]2O[C@@H](n3cnc4c(=O)[nH]c(N)nc43)[C@H](O)[C@@H]2O)[C@@H](COP(=O)(O)OP(=O)(O)OP(=O)(O)OC[C@H]2O[C@@H](n3c[n+](C)c4c(=O)[nH]c(N)nc43)[C@H](O)[C@@H]2Cn2cc(CNC(=O)CCCC[C@@H]3SC[C@@H]4NC(=O)N[C@@H]43)nn2)O[C@H]1n1cnc2c(N)ncnc21` [Compound S41] are 126 µg, “above 95%” and 1.81.
Consider `COCC1(F)C(COP(=O)(O)OP(=O)(O)OP(=O)(O)OCC2OC(n3cnc4c(N)ncnc43)C(OC)C2OP(=O)([O-])OCC2OC(n3cnc4c(=O)[nH]c(N)nc43)C(O)C2O)OC(n2c[n+](Cc3ccc(F)cc3)c3c(=O)[nH]c(N)nc32)C1O` (stereo not shown) [Compound D91], for which, on T7 RNA Polymerase (method of Example 20 (Table 4)), the Final product mass turned out to be 113 µg. The compound also showed a Relative fluorescence reading in the test with HEK293T cells (setting [4]) of 1.93.
The corresponding values for `COC1C(OP(=O)([O-])OCC2OC(n3cnc4c(=O)[nH]c(N)nc43)C(O)C2O)C(COP(=O)(O)OP(=O)(O)OP(=O)(O)OCC2OC(n3c[n+](C)c4c(=O)[nH]c(N)nc43)C(O)C2(C)F)OC1n1cnc2c(N)ncnc21` (stereo not shown) [Compound D85] are 120 µg and 1.6.
Regarding `CO[C@@H]1[C@H](OP(=O)(O)OC[C@H]2O[C@@H](n3cnc4c(=O)[nH]c(N)nc43)[C@H](O)[C@@H]2O)[C@@H](COP(=O)(O)OP(=O)(O)OP(=O)([O-])OC[C@H]2O[C@@H](n3c[n+](C)c4c(=O)[nH]c(N)nc43)[C@H](O)[C@@H]2CNC(=O)CCCCCNC(=O)CCCC[C@@H]2SC[C@@H]3NC(=O)N[C@@H]32)O[C@H]1n1cnc2c(N)ncnc21` [Compound S3], the Final product mass on T7 RNA Polymerase (setting [2]) was determined as 137 µg. The recovery rate result in test [1] is on record as “above 95%”. In addition, the Relative fluorescence reading in the test on HEK293T cells (setting [3]) is listed as 2.56.
Compound `COCC1(F)C(COP(=O)(O)OP(=O)(O)OP(=O)(O)OCC2OC(n3cnc4c(N)ncnc43)C(OC)C2OP(=O)([O-])OCC2OC(n3cnc4c(=O)[nH]c(N)nc43)C(O)C2O)OC(n2c[n+](Cc3ccccc3)c3c(=O)[nH]c(N)nc32)C1O` (stereo not shown) [Compound D88] came in with a Final product mass at T7 RNA Polymerase (method of Example 20 (Table 4)) of 114 µg. Further, in the test on HEK293T cells (setting [4]), the Relative fluorescence reading stood at 2.04.
On T7 RNA Polymerase (setting [2]), `CO[C@@H]1[C@H](OP(=O)([O-])OC[C@H]2O[C@@H](n3cnc4c(=O)[nH]c(N)nc43)[C@H](O)[C@@H]2O)[C@@H](COP(=O)(O)OP(=O)(O)OP(=O)(O)OC[C@H]2O[C@@H](n3c[n+](C)c4c(=O)[nH]c(N)nc43)[C@H](O)[C@@H]2CC(=O)NCCNC(=O)CCCC[C@@H]2SC[C@@H]3NC(=O)N[C@@H]32)O[C@H]1n1cnc2c(N)ncnc21` [Compound S170] showed a Final product mass of 96 µg. In addition, in test [1], the recovery rate result is listed as “above 95%”. For the same compound, the Relative fluorescence reading in the test on HEK293T cells (setting [3]) is 1.47.
In the case of `COCC1(F)C(COP(=O)(O)OP(=O)(O)OP(=O)(O)OP(=O)(O)OCC2OC(n3cnc4c(N)ncnc43)C(OC)C2OP(=O)([O-])OCC2OC(n3cnc4c(=O)[nH]c(N)nc43)C(O)C2O)OC(n2c[n+](C)c3c(=O)[nH]c(N)nc32)C1O` (stereo not shown) [Compound D28], at T7 RNA Polymerase (method of Example 20 (Table 4)), the Final product mass is listed as 92 µg. Further, the Relative fluorescence reading in the test with HEK293T cells (setting [4]) is reported as 1.12.
On the same counts, the results for `CO[C@@H]1[C@H](OP(=O)([O-])OC[C@H]2O[C@@H](n3cnc4c(=O)[nH]c(N)nc43)[C@H](O)[C@@H]2O)[C@@H](COP(=O)(O)OP(=O)(O)OP(=O)(O)OC[C@H]2O[C@@H](n3c[n+](C)c4c(=O)[nH]c(N)nc43)[C@H](O)[C@]2(F)CNC(C)=O)O[C@H]1n1cnc2c(N)ncnc21` [Compound D31] are 133 µg and 1.73.
As for `CO[C@@H]1[C@H](OP(=O)(O)OC[C@H]2O[C@@H](n3cnc4c(=O)[nH]c(N)nc43)[C@H](O)[C@@H]2O)[C@@H](COP(=O)(O)OP(=O)(O)OP(=O)([O-])OC[C@H]2O[C@@H](n3c[n+](C)c4c(=O)[nH]c(N)nc43)[C@H](O)[C@@H]2CNC(=O)CCCC[C@@H]2SC[C@@H]3NC(=O)N[C@@H]32)O[C@H]1n1cnc2c(N)ncnc21` [Compound S1], the Final product mass on T7 RNA Polymerase (setting [2]) turned out to be 139 µg. The compound also had a Relative fluorescence reading with HEK293T cells (setting [3]) of 2.41.
As to `COCC1(F)C(COP(=O)(O)OP(=O)(O)CP(=O)(O)OCC2OC(n3cnc4c(N)ncnc43)C(OC)C2OP(=O)([O-])OCC2OC(n3cnc4c(=O)[nH]c(N)nc43)C(O)C2O)OC(n2c[n+](C)c3c(=O)[nH]c(N)nc32)C1O` (stereo not shown) [Compound D24], the Final product mass on T7 RNA Polymerase (method of Example 20 (Table 4)) is recorded as 83 µg. Further, the Relative fluorescence reading with HEK293T cells (setting [4]) turned out to be 1.08.
Turning to `COCCOCCOCC(=O)NC[C@H]1[C@@H](O)[C@H](n2c[n+](C)c3c(=O)[nH]c(N)nc32)O[C@@H]1COP(=O)([O-])OP(=O)(O)OP(=O)(O)OC[C@H]1O[C@@H](n2cnc3c(N)ncnc32)[C@H](OC)[C@@H]1OP(=O)(O)OC[C@H]1O[C@@H](n2cnc3c(=O)[nH]c(N)nc32)[C@H](O)[C@@H]1O` [Compound 5], at T7 RNA Polymerase (setting [2]), the Final product mass came to 180 µg. Besides, the Relative fluorescence reading in the test with HEK293T cells (setting [3]) was 1.86.
